From patent publication US12245562B2, “System for rapid, robust, and efficient in vitro mass propagation of Miscanthus x giganteus” (Delaware State University, priority 2017, dated 2025) come the findings set out here.

Structures can show the parent of a compound that is named as a salt.

The assay deals with endophytic fungi. Put plainly: control of endophyte growth in in vitro shoot culture media. Conditions: 54 μM in DSIM culture medium of Miscanthus x giganteus; compared with vancomycin hydrochloride 0, 13.5, 27, 41.5 μM and tetracycline hydrochloride 20.8 or 52 μM. In kind it is cell-based.

Take `CN[C@H](CC(C)C)C(=O)N[C@H]1C(=O)N[C@@H](CC(N)=O)C(=O)N[C@H]2C(=O)N[C@H]3C(=O)N[C@H](C(=O)N[C@H](C(=O)O)c4cc(O)cc(O)c4-c4cc3ccc4O)[C@H](O)c3ccc(c(Cl)c3)Oc3cc2cc(c3O[C@@H]2O[C@H](CO)[C@@H](O)[C@H](O)[C@H]2O[C@H]2C[C@](C)(N)[C@H](O)[C@H](C)O2)Oc2ccc(cc2Cl)[C@H]1O` [vancomycin, vancomycin hydrochloride]: the “controlling the growth of endophytic fungi in the culture media” value was “more effective”.
